# Source: patent US11066369B2, “N-(pyridin-2-yl)pyridine-sulfonamide derivatives and their use in the treatment of disease” (Novartis AG, priority 2016, dated 2021)
# Where a name gives a salt, the structure may show the parent alone.
# Biological target: T1, horseradish peroxidase (HRP) tagged delF508-CFTR (Homo sapiens, UniProt P13569, DEL508-508)
# T1 construct: expressed in transfected cells
# Assay: Measurement of delF508-CFTR-HRP surface expression in CFBE41o- cells;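 as to DelF508-CFTR-HRP Amax %: percent efficacy relative to reference corrector lumacaftor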
# Type: cell-based
# Settings: delF508-CFTR-HRP surface expression, CFBE41o- cells; for Emax: read-out: DelF508-CFTR-HRP Amax %; for EC50: read-out: DelF508-CFTR-HRP EC50
# Description: Measurement of delF508-CFTR-HRP Surface Expression in CFBE41o-Cells
# This assay quantifies the cell surface expressions of the mutant CFTR channel using an extracellular HRP tag.
# A cellular assay was developed to measure surface expression of horseradish peroxidase (HRP) tagged delF508-CFTR in the human bronchial epithelial immortalized CFBE41o-cell line (Phuan, P. W., et al, (2014) Molecular Pharmacology 86:42-51). Specifically, the HRP sequence was inserted into the fourth extracellular loop of delF508-CFTR and stably expressed in CFBE41o-cells. Cells were seeded in 384 well plate at a density of 5000 cells/well and incubated at 37° C. for 12 to 24 hours in medium (Gibco MEM #11095, 10% FBS, 10 mM HEPES, […], 200 μg/mL G418, 3 μg/mL Puromycin). The delF508-CFTR-HRP expression was induced with 500 ng/mL doxycycline (Sigma D-9891, dissolved in H2O and sterile filtered) in medium and the cells were incubated at 37° C. for 48h. Old medium was removed and fresh medium was added containing 500 ng/mL doxycycline and unknown test compound at required test concentration in DMSO, not exceeding 0.5% final DMSO concentration. The highest concentration tested was 10 μM with a 10-point concentration response curve using a 3-fold dilution. After addition of compounds, the cells were incubated for 24h at 37° C. On the final day, cells were washed four times in PBS containing 1 mM MgCl2 and 0.1 mM CaCl2. HRP-Substrate (SuperSignal ELISA Pico, Fisher #37069) 20 μl/well was added and the luminescence signal was determined (Viewlux, Perkin Elmer). Light was emitted upon addition of exogenous HRP-Substrate only when delF508-CFTR-HRP reached the cell surface and the HRP tag was accessible to the HRP-Substrate (note: HRP-Substrate cannot cross the lipid bilayer to reach delF508-CFTR-HRP misfolded within the cell).
# The median activity for the lowest concentration of the compounds on each assay plate was calculated and this value was used to normalize the signal for each well on the respective plate. Three replicates at each concentrations for every compound were run to determine one EC50. The median value was determined and used to calculate compound activities as described below. Effective half maximal values (EC50) were calculated for each compound by performing logistic regression on measured dose-response data points using the equation:
# [formula] where “Y” is the observed activity, “Bottom” is the lowest observed value, “Top” is the highest observed value, and the “Hill coefficient” gives the largest absolute value of the slope. The curve fitting is carried out by a curve fitting program implemented at GNF using Matlab (Mathworks).
# The dose response curves also were used to calculate Fold Change (FC) using the equation: […]
# Compound efficacy relative to the reference compound 3-(6-(1-(2,2-difluorobenzo[d][1,3]dioxol-5-yl)cyclopropane-1-carboxamido)-3-methylpyridin-2-yl)benzoic acid was determined using the following formula: […]
# T1 sequence (P13569 with tags, fused parts or gaps DEL508-508): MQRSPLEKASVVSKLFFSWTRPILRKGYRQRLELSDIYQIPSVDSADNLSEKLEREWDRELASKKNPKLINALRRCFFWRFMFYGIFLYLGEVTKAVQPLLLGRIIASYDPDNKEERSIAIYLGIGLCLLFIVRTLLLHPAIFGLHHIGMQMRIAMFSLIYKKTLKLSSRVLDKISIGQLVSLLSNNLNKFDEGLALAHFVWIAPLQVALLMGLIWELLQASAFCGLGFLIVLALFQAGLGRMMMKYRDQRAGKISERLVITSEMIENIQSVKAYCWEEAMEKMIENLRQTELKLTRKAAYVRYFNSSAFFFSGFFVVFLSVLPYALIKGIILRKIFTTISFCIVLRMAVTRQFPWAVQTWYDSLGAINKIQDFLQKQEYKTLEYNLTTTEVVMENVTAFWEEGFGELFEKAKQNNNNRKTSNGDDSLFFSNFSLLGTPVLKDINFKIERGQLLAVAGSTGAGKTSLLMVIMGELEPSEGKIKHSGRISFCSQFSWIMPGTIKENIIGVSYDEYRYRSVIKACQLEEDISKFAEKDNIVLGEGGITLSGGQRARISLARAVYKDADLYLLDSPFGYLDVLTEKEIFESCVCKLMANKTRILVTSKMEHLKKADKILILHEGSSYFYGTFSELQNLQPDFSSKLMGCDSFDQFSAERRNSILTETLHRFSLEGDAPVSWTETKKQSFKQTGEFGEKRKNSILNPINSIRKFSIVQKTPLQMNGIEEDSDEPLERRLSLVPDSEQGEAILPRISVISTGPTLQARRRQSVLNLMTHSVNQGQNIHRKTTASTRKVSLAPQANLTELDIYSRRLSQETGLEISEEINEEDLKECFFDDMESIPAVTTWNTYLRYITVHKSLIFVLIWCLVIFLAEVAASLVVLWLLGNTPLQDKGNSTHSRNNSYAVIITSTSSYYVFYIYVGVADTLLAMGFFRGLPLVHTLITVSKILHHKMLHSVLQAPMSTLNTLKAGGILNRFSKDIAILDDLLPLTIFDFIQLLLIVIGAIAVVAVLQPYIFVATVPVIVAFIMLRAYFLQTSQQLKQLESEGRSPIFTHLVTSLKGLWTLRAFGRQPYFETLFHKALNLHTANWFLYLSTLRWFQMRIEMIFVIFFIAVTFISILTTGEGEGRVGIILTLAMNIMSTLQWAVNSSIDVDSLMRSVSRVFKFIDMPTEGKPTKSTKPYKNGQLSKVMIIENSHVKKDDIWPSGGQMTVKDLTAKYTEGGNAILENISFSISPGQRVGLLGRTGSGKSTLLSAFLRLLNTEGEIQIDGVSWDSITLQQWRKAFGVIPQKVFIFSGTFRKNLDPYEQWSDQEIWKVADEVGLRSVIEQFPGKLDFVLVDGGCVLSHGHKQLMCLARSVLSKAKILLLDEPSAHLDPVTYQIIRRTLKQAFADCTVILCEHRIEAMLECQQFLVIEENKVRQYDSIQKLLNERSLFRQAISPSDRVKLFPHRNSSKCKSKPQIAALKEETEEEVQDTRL
Compound,Emax,EC50
"Nc1cccc(S(=O)(=O)Nc2ccc(Cl)c(-c3ccccc3C(F)F)n2)n1 [Example 65, 6-amino-N-(5-chloro-6-(2-(difluoromethyl)phenyl)pyridin-2-yl)pyridine-2-sulfonamide]",220%,1.54 µM
"Cc1ccccc1-c1nc(NS(=O)(=O)c2cccc(N)n2)ccc1C1CC1 [Example 66, 6-amino-N-(5-cyclopropyl-6-(o-tolyl)pyridin-2-yl)pyridine-2-sulfonamide]",215%,3.07 µM
"Cc1cccc(C)c1-c1cccc(NS(=O)(=O)c2cccc(N)n2)n1 [Example 68, 6-amino-N-(6-(2,6-dimethylphenyl)pyridin-2-yl)pyridine-2-sulfonamide]",209%,2.42 µM
"Nc1cccc(S(=O)(=O)Nc2ccc(Cl)c(-c3ccccc3F)n2)n1 [Example 69, 6-amino-N-(5-chloro-6-(2-fluorophenyl)pyridin-2-yl)pyridine-2-sulfonamide]",199%,3.3 µM
"Cc1ccccc1-c1nc(NS(=O)(=O)c2cccc(N)n2)ccc1F [Example 70, 6-amino-N-(5-fluoro-6-(o-tolyl)pyridin-2-yl)pyridine-2-sulfonamide]",197%,2.64 µM
"Cc1cc(F)ccc1-c1nc(NS(=O)(=O)c2ccc(N)nc2)ccc1Cl [Example 71, 6-amino-N-(5-chloro-6-(4-fluoro-2-methylphenyl)pyridin-2-yl)pyridine-3-sulfonamide]",196%,3.55 µM
"COc1ccc(NS(=O)(=O)c2cccc(N)n2)nc1-c1c(C)cccc1C [Example 72, 6-amino-N-(6-(2,6-dimethylphenyl)-5-methoxypyridin-2-yl)pyridine-2-sulfonamide hydrochloride]",193%,3.41 µM
"Cc1ccccc1-c1nc(NS(=O)(=O)c2cccc(N)n2)ccc1C [Example 75, 6-amino-N-(5-methyl-6-(o-tolyl)pyridin-2-yl)pyridine-2-sulfonamide]",158%,2.84 µM
"COc1ccccc1-c1nc(NS(=O)(=O)c2cccc(N)n2)ccc1Cl [Example 76, 6-amino-N-(5-chloro-6-(2-methoxyphenyl)pyridin-2-yl)pyridine-2-sulfonamide]",156%,2.3 µM
"Cc1ccc(NS(=O)(=O)c2cccc(N)n2)nc1-c1ccccc1Cl [Example 77, 6-amino-N-(6-(2-chlorophenyl)-5-methylpyridin-2-yl)pyridine-2-sulfonamide Hydrochloride]",152%,2.55 µM
"Nc1cccc(S(=O)(=O)Nc2ccc(Cl)c(-c3c(F)ccc(F)c3F)n2)n1 [Example 78, 6-amino-N-(5-chloro-6-(2,3,6-trifluorophenyl)pyridin-2-yl)pyridine-2-sulfonamide]",141%,2.73 µM
"Nc1cccc(S(=O)(=O)Nc2ccc(C(F)(F)F)c(-c3cccc(C(F)(F)F)c3)n2)n1 [Example 79, 6-amino-N-(5-(trifluoromethyl)-6-(3-(trifluoromethyl)phenyl)pyridin-2-yl)pyridine-2-sulfonamide]",141%,2.3 µM
"Cc1cccc(C)c1-c1nc(NS(=O)(=O)c2ccc(Br)c(N)n2)ccc1Cl [Example 81, 6-amino-5-bromo-N-(5-chloro-6-(2,6-dimethylphenyl)pyridin-2-yl)pyridine-2-sulfonamide]",127%,1.98 µM
"Cc1ccc(OC(F)(F)F)cc1-c1nc(NS(=O)(=O)c2cccc(N)n2)ccc1C(F)(F)F [Example 82, 6-amino-N-(6-(2-methyl-5-(trifluoromethoxy)phenyl)-5-(trifluoromethyl)pyridin-2-yl)pyridine-2-sulfonamide]",124%,0.942 µM
"Cc1ccc(C#N)cc1-c1nc(NS(=O)(=O)c2cccc(N)n2)ccc1C(F)(F)F [Example 83, 6-amino-N-(6-(5-cyano-2-methylphenyl)-5-(trifluoromethyl)pyridin-2-yl)pyridine-2-sulfonamide]",115%,4.11 µM
"Cc1ccc(C#N)cc1-c1nc(NS(=O)(=O)c2cccc(N)n2)ccc1Cl [Example 84, 6-amino-N-(5-chloro-6-(5-cyano-2-methylphenyl)pyridin-2-yl)pyridine-2-sulfonamide]",111%,1.54 µM
"Cc1ccc(C#N)cc1-c1nc(NS(=O)(=O)c2ccnc(N)c2)ccc1Cl [Example 85, 2-amino-N-(5-chloro-6-(5-cyano-2-methylphenyl)pyridin-2-yl)pyridine-4-sulfonamide]",110%,3.68 µM
"Nc1cccc(S(=O)(=O)Nc2ccc(Cl)c(-c3c(F)cc(F)cc3F)n2)n1 [Example 86, 6-amino-N-(5-chloro-6-(2,4,6-trifluorophenyl)pyridin-2-yl)pyridine-2-sulfonamide]",108%,3.53 µM
"Cc1c(C#N)cccc1-c1nc(NS(=O)(=O)c2ccnc(N)c2)ccc1Cl [Example 87, 2-amino-N-(5-chloro-6-(3-cyano-2-methylphenyl)pyridin-2-yl)pyridine-4-sulfonamide]",93.8%,4.1 µM
"Cc1ccccc1-c1nc(NS(=O)(=O)c2cccnc2N)ccc1Cl [Example 88, 2-amino-N-(5-chloro-6-(o-tolyl)pyridin-2-yl)pyridine-3-sulfonamide]",92.9%,3.78 µM
"N#Cc1ccccc1-c1nc(NS(=O)(=O)c2cccc(N)n2)ccc1Cl [Example 90, 6-amino-N-(5-chloro-6-(2-cyanophenyl)pyridin-2-yl)pyridine-2-sulfonamide]",50%,3.78 µM
"Cc1cc(C#N)ccc1-c1nc(NS(=O)(=O)c2cccc(N)n2)ccc1Cl [Example 91, 6-amino-N-(5-chloro-6-(4-cyano-2-methylphenyl)pyridin-2-yl)pyridine-2-sulfonamide]",41.7%,2.2 µM
"Cc1cc(C#N)ccc1-c1nc(NS(=O)(=O)c2ccnc(N)c2)ccc1Cl [Example 92, 2-amino-N-(5-chloro-6-(4-cyano-2-methylphenyl)pyridin-2-yl)pyridine-4-sulfonamide]",23.9%,1.11 µM
"Cc1cccc(C)c1-c1ccc(F)c(NS(=O)(=O)c2cccc(N)n2)n1 [Example 93, 6-amino-N-(6-(2,6-dimethylphenyl)-3-fluoropyridin-2-yl)pyridine-2-sulfonamide]",23.5%,3.55 µM
"Nc1cccc(S(=O)(=O)Nc2ccc(Cl)c(-c3ccc(C(F)(F)F)cc3)n2)n1 [Example 94, 6-amino-N-(5-chloro-6-(4-(trifluoromethyl)phenyl)pyridin-2-yl)pyridine-2-sulfonamide]",20.3%,3.19 µM
"Cc1cccc(C)c1-c1nc(NS(=O)(=O)c2cccc(N)n2)c(F)cc1Cl [Example 95, 6-amino-N-(5-chloro-6-(2,6-dimethylphenyl)-3-fluoropyridin-2-yl)pyridine-2-sulfonamide]",19%,3.75 µM
"Cc1cccc(C)c1-c1ccc(Cl)c(NS(=O)(=O)c2cccc(N)n2)n1 [Example 96, 6-amino-N-(3-chloro-6-(2,6-dimethylphenyl)pyridin-2-yl)pyridine-2-sulfonamide]",10%,4.33 µM
"Cc1ccccc1-c1nc(NS(=O)(=O)c2cccc(N[C@@H]3CCNC[C@H]3O)n2)ccc1C(F)(F)F [Example 114, 6-(((3R,4R)-3-hydroxypiperidin-4-yl)amino)-N-(6-(o-tolyl)-5-(trifluoromethyl)pyridin-2-yl)pyridine-2-sulfonamide Hydrochloride]",66.2%,3.63 µM
"Cc1ccccc1-c1nc(NS(=O)(=O)c2cccc(N[C@H]3CCNC3)n2)ccc1C(F)(F)F [Example 124, (S)-6-(pyrrolidin-3-ylamino)-N-(6-(o-tolyl)-5-(trifluoromethyl)pyridin-2-yl)pyridine-2-sulfonamide Hydrochloride]",148%,4.61 µM
